Assay results published in patent US8236947B2, “Quinoline derivatives and their use as 5-HT6 ligands” (Glaxo Group Limited, priority 2002, dated 2012).
Where a name gives a salt, the structure may show the parent alone. Read-outs that look alike come from different tables or passages of the source.

What was measured:
[1] = molecular target: human cloned 5-HT6 receptors (Homo sapiens, UniProt P50406); experiment: affinity for the 5-HT6 receptor (procedures outlined in WO98/27081); assay type: binding
[2] = human cloned 5-HT6 receptors, read-out: pKi values at human cloned 5-HT6 receptors (converted)

Chain of human cloned 5-HT6 receptors (P50406 whole entry): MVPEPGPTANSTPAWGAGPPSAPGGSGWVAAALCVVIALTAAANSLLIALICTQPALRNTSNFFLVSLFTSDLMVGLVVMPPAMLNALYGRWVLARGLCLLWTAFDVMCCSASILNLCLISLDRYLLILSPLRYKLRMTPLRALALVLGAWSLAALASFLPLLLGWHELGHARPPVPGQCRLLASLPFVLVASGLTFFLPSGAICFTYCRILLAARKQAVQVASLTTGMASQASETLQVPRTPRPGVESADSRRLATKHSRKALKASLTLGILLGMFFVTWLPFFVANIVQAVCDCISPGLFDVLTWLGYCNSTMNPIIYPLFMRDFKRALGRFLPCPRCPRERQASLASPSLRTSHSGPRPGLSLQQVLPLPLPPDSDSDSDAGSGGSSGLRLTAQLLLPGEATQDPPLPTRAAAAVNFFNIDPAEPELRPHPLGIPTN

| SMILES | Ki [1, 2] [nM] | also measured |
| --- | --- | --- |
| C[C@H]1CN(c2cccc3cc(S(=O)(=O)c4ccccc4)cnc23)CCN1 (as salt: hydrochloride) [Example E13, (S)-8-(3-Methyl)piperazin-1-yl-3-phenylsulfonylquinoline hydrochloride] | – | melting point: 266 to 269 °C (dec.) |
| CN1CCN(c2cccc3cc(S(=O)(=O)c4ccccc4)cnc23)CC1 [Example E1, 8-(4-Methyl-piperazin-1-yl)-3-phenylsulfonylquinoline] | < 10 | – |
| O=S(=O)(c1cnc2c(N3CCNCC3)cccc2c1)c1ccc(Br)cc1OC(F)(F)F [Example E8, 3-(4-Bromo-2-trifluoromethoxy)phenylsulfonyl-8-piperazin-1-yl-quinoline hydrochloride] | < 10 | – |
| O=S(=O)(c1ccccc1)c1cnc2c(N3CCNCC3)c(Cl)ccc2c1 [Example E10, 7-Chloro-3-phenylsulfonyl-8-piperazin-1-yl-quinoline hydrochloride] | – | Ki [1]: < 10 nM |
| Cc1cc(N2CCNCC2)c2ncc(S(=O)(=O)c3ccccc3)cc2c1 [Example E11, 6-Methyl-3-phenylsulfonyl-8-piperazin-1-yl-quinoline hydrochloride] | < 10 | – |
| C[C@@H]1CN(c2cccc3cc(S(=O)(=O)c4ccccc4)cnc23)CCN1 [Example E12, (R)-8-(3-Methyl)piperazin-1-yl-3-phenylsulfonylquinoline hydrochloride] | < 10 | – |
| C[C@H]1CN(c2cccc3cc(S(=O)(=O)c4ccccc4)cnc23)CCN1 [Example E13, (S)-8-(3-Methyl)piperazin-1-yl-3-phenylsulfonylquinoline hydrochloride] | < 10 | – |
| CCN1CCN(c2cccc3cc(S(=O)(=O)c4ccccc4)cnc23)CC1 [Example E17, 8-(4-Ethyl-piperazin-1-yl)-3-phenylsulfonylquinoline hydrochloride] | < 10 | – |
| O=S(=O)(c1ccccc1)c1cnc2c(N3CCN4CCCC4C3)cccc2c1 (centres unmarked) [Example E37] | < 10 | – |
| O=S(=O)(c1ccccc1)c1cnc2c(N3C[C@@H]4C[C@H]3CN4)cccc2c1 [Example E43, 3-Phenylsulfonyl 8-({1S, 4S}2,5-diazabicyclo[2.2.1]heptan-2-yl) quinoline hydrochloride] | < 10 | – |

More lines, main results first:

| Ki [1, 2] [nM] | SMILES | also measured |
| --- | --- | --- |
| < 10 | O=S(=O)(c1cnc2c(N3CCNCC3)cccc2c1)c1ccccc1Cl [Example E3, 3-(2-Chloro)phenylsulfonyl-8-piperazin-1-yl-quinoline hydrochloride] | – |
| < 10 | O=S(=O)(c1cccc(Cl)c1)c1cnc2c(N3CCNCC3)cccc2c1 [Example E4, 3-(3-Chloro)phenylsulfonyl-8-piperazin-1-yl-quinoline hydrochloride] | – |
| < 10 | O=S(=O)(c1cnc2c(N3CCNCC3)cccc2c1)c1ccccc1F [Example E5, 3-(2-Fluoro)phenylsulfonyl-8-piperazin-1-yl-quinoline hydrochloride] | – |
| < 10 | O=S(=O)(c1ccc(Cl)cc1)c1cnc2c(N3CCNCC3)cccc2c1 [Example E6, 3-(4-Chloro)phenylsulfonyl-8-piperazin-1-yl-quinoline hydrochloride] | – |
| < 10 | O=S(=O)(c1cccc(F)c1)c1cnc2c(N3CCNCC3)cccc2c1 [Example E7, 3-(3-Fluoro)phenylsulfonyl-8-piperazin-1-yl-quinoline hydrochloride] | – |
| < 10 | O=S(=O)(c1cccc(C(F)(F)F)c1)c1cnc2c(N3CCNCC3)cccc2c1 [Example E9, 8-Piperazin-1-yl-3-(3-trifluoromethyl)phenylsulfonylquinoline hydrochloride] | – |
| < 10 | O=S(=O)(c1ccccc1)c1cnc2c(N3CCCNCC3)cccc2c1 [Example E14, 8-Homopiperazin-1-yl-3-phenylsulfonylquinoline hydrochloride] | – |
